Test results taken from patent US8501205B2, “Insect repellent composition” (priority 2006, dated 2013).
Marks after values point to notes of the source that are not given here.

Tests used:
host-seeking mosquitoes = assay: Study A Guatemala field trial, human-landing catch on treated lower legs; type: in vivo, Psorophora varipes, Aedes Ochlerotatus taeniorhynchus
From the text: Study A—Guatemala Study. The following repellent formulations (% by weight) were used: (1) C15: repellent containing the amounts of ingredients described in Example 1—the PMD obtained from acid modification of Coryinbia citriodora oil, CAS: 42822-86-6, purchased from Chemian Technology Ltd under the trademark Citriodiol®; (2)115: repellent containing the amounts of ingredients described in Example 1—the PMD obtained from Coolact® 38D; (3) T20: containing 20 wt % PMD instead of 15%, obtained from Coolact® 38D; (4) positive control: 15% DEET (N,N-diethyl-meta-toluamide, CAS 134-62-3; Sigma-Aldrich Co.) in ethanol; (5) negative control: mixture of 20% mineral oil and ethanol.
(§1) Study A and B, Both studies were controlled double blind, human-landing catch design. All solutions were placed in unmarked containers labeled by code. On any one night, human volunteers had both lower legs treated with either one of the PMD/LG candidate repellents or a positive or negative control at a rate of 0.002 ml/cm^2 between the ankle and the knee. Volunteers' leg length and circumference were measured to calculate surface area and the correct dose of treatment was measured using a micropipette, and applied using a latex glove to minimize absorption of material onto the hand of the volunteer. During the human-landing catches, the volunteers wore shorts to the knee, work boots, and a loose bug jacket (ProBuy) to ensure that blood-seeking mosquitoes had access only to their lower legs.
(§2) The designated locations within the field sites were 10 m from each other and a minimum of 20 m from alternate sources of kairomones such as houses and livestock. As insect repellents act over a distance of less than a meter, and the maximum distance of host attraction of a single human to mosquitoes is 10 m,^29 the design eliminates any “relativity effect” where insects choose between two hosts simultaneously. Mosquitoes were collected from the lower legs of the volunteers once they had settled—without the need to wait for biting—by using a mouth aspirator, flashlight, and a collection vessel. Collection vessels were changed each hour to provide hourly measures of repellency. Umbrellas were also provided, to protect the volunteers from any rain showers that might wash away their repellent.
(§3) All volunteers were experienced at conducting man-landing catches. A form outlining procedure was given to the volunteers to ensure that they had full understanding of the potential risks of a study of this kind. In addition, each was given chloroquine (Guatemala) or Mefloquine (Peru) prophylaxis in accordance with WHO guidelines.^30 Full ethical clearance was obtained from Universidad del Valle, Guatemala (Study A); and from London School of Hygiene and Tropical Medicine Ethics Board and Instituto Nacional de Salud, Peru (Study B).
Study A. The three repellents and two controls were applied to the five volunteers at 1430 hrs, and man-landing catches were performed at the field site for one hour before and after sunset (1730-1930 hrs), when the evening mosquito biting is at its peak as shown by preliminary man-landing catches. The times chosen allowed an assessment of the protection afforded by the repellent over 5 hours while exposing volunteers to bites for only 2 hours. This helped minimize exposure and risk to the collectors. The study was a balanced 5×5 Latin-square design that required each volunteer to test each treatment five times throughout the study over a period of twenty-five nights. Every evening, each individual was allocated one of five treatments, and sat in one of five allocated positions. Consequently, the volunteers changed position every five days.
Mosquitoes were maintained overnight and killed by cooling prior to identification the following morning. Data were normalized using natural log ([…]) and analyzed with General Linear Model (GLM) using Minitab 11.0 for Windows. […]

An. darlingi = settings: for 4 hours after application; biting pressure 75 mosquito landings per human-hour; cited from earlier work
All mosquitoes = assay: Study B Peru field trial, human-landing catch, all mosquitoes; type: in vivo, mosquitoes (86% Anopheles darlingi); settings: for % P = percentage protection / AM = arithmetic mean mosquito landings/hour / WM = William's mean mosquito landings/hour: All mosquitoes
From the text: (§4) Study B—Peru Study. Repellent formulations (% by weight) were used: (1) “PMD+LG” containing about 16% PMD as indicated in Example 1—PMD obtained from Coolact® 38D; (2) positive control: 20% DEET (Sigma Aldridge) in ethanol (Sigma-Aldrich Co.); (3) negative control: 20% mineral oil (ExxonMobil Corporation) in ethanol.
as §1, §2, §3
(§5) Study B. The repellent and two controls were applied at 1600 hrs, and man-landing collections were performed at the field, between 1800 and 2200 hours, as this is the time of peak An. darlingi activity in the area (Chan, A. unpublished data). The times chosen allowed an assessment of the protection afforded by the repellent over to be made of relative protection of the samples for a period of 6 hours while exposing volunteers to bites for only 4 hours. This helped minimize exposure and risk to the collectors. The volunteers took a 15-minute break between 2000 hrs and 2015 hrs. The study was a 3×3 balanced Latin-square design performed using three volunteers over nine nights, with volunteers changing positions every third night. Due to unforeseen circumstances, one of the volunteers was replaced after 4 nights, and this was factored into the statistical analysis.
(§6) Mosquitoes were maintained overnight and killed by cooling prior to identification the following morning. Data were normalized using natural log ([…]) and analyzed with General Linear Model (GLM) using Minitab 11.0 for Windows. Further testing of individual variables was performed using Kruskal Wallis, as data could not be sufficiently normalized to use one-way Analysis of Variance (ANOVA) due to low collection numbers on repellent-treated individuals.

Anopheles darlingi = assay: Study B Peru field trial, human-landing catch, Anopheles darlingi; type: in vivo
From the text: as §4, §1, §2, §3, §5, §6

[1] = Mean of 4 and 5 hours post application

Question: Which “% P = percentage protection” value (host-seeking mosquitoes; 4 hours post application) does the source give for `CCN(CC)C(=O)c1cccc(C)c1` [15% DEET, N,N-diethyl-meta-toluamide] here?
Answer: The value was 94.52%.

Question: And the “WM = William's mean mosquito landings/hour” value (host-seeking mosquitoes; 4 hours post application)?
Answer: The value was 3.63 mosquito landings/hour.

Question: And the “AM = arithmetic mean mosquito landings/hour” value (host-seeking mosquitoes; 4 hours post application, 0.002 ml/cm^2 on lower legs)?
Answer: Its value is 6.33 mosquito landings/hour.

Question: And the “% P = percentage protection” value (host-seeking mosquitoes; 5 hours post application)?
Answer: The value was 87.85%.

Question: And the “AM = arithmetic mean mosquito landings/hour” value (host-seeking mosquitoes; 5 hours post application)?
Answer: Its value is 12.21 mosquito landings/hour.

Question: And the “WM = William's mean mosquito landings/hour” value (host-seeking mosquitoes; 5 hours post application)?
Answer: The value was 4.87 mosquito landings/hour.

Question: What about the “% P = percentage protection” value (host-seeking mosquitoes; [1]) of the same compound?
Answer: The value was 91.42%.

Question: And the “AM = arithmetic mean mosquito landings/hour” value (host-seeking mosquitoes; [1])?
Answer: The value was 9.27 mosquito landings/hour.

Question: And the “WM = William's mean mosquito landings/hour” value (host-seeking mosquitoes; [1])?
Answer: The value was 3.60^c mosquito landings/hour.

Question: And the “protection from host-seeking mosquitoes” value (host-seeking mosquitoes; up to five hours after application, biting pressure 108 mosquitoes per man hour)?
Answer: Its value is 91%.

Question: And the protection (An. darlingi)?
Answer: Its protection is 85%.

Question: With `CCN(CC)C(=O)c1cccc(C)c1` [20% DEET, N,N-diethyl-meta-toluamide] as the compound, how does the average protection (All mosquitoes; 6 hours after application / over the duration of the trial) read?
Answer: Its average protection is 62%.

Question: What about the “% P = percentage protection” value (All mosquitoes; 3 hours post application) of the same compound?
Answer: The value was 65.77%.

Question: And the “AM = arithmetic mean mosquito landings/hour” value (All mosquitoes; 3 hours post application)?
Answer: The value was 15.22 mosquito landings/hour.

Question: What about the “WM = William's mean mosquito landings/hour” value (All mosquitoes; 3 hours post application) of the same compound?
Answer: Its value is 10.59 mosquito landings/hour.

Question: And the “% P = percentage protection” value (All mosquitoes; 4 hours post application)?
Answer: The value was 68.12%.

Question: What about the “AM = arithmetic mean mosquito landings/hour” value (All mosquitoes; 4 hours post application) of the same compound?
Answer: The value was 19.78 mosquito landings/hour.

Question: What about the “WM = William's mean mosquito landings/hour” value (All mosquitoes; 4 hours post application) of the same compound?
Answer: Its value is 16.12 mosquito landings/hour.

Question: What about the “% P = percentage protection” value (All mosquitoes; 5 hours post application) of the same compound?
Answer: Its value is 63.80%.

Question: What about the “AM = arithmetic mean mosquito landings/hour” value (All mosquitoes; 5 hours post application) of the same compound?
Answer: The value was 13.89 mosquito landings/hour.

Question: What about the “WM = William's mean mosquito landings/hour” value (All mosquitoes; 5 hours post application) of the same compound?
Answer: The value was 11.68 mosquito landings/hour.

Question: What about the “% P = percentage protection” value (All mosquitoes; 6 hours post application) of the same compound?
Answer: Its value is 52.08%.

Question: What about the “AM = arithmetic mean mosquito landings/hour” value (All mosquitoes; 6 hours post application) of the same compound?
Answer: Its value is 18.44 mosquito landings/hour.

Question: And the “WM = William's mean mosquito landings/hour” value (All mosquitoes; 6 hours post application)?
Answer: The value was 15.28 mosquito landings/hour.

Question: And the “% P = percentage protection” value (All mosquitoes; Mean of 3-6 hours)?
Answer: Its value is 63.63%.

Question: What about the “AM = arithmetic mean mosquito landings/hour” value (All mosquitoes; Mean of 3-6 hours) of the same compound?
Answer: The value was 16.83 mosquito landings/hour.

Question: What about the “WM = William's mean mosquito landings/hour” value (All mosquitoes; Mean of 3-6 hours) of the same compound?
Answer: The value was 13.30^c mosquito landings/hour.

Question: And the “% P = percentage protection” value (Anopheles darlingi; 3 hours post application)?
Answer: Its value is 56.43%.

Question: What about the “AM = arithmetic mean mosquito landings/hour” value (Anopheles darlingi; 3 hours post application) of the same compound?
Answer: The value was 13.56 mosquito landings/hour.

Question: And the “WM = William's mean mosquito landings/hour” value (Anopheles darlingi; 3 hours post application)?
Answer: Its value is 9.59 mosquito landings/hour.

Question: And the “% P = percentage protection” value (Anopheles darlingi; 4 hours post application)?
Answer: Its value is 66.53%.

Question: What about the “AM = arithmetic mean mosquito landings/hour” value (Anopheles darlingi; 4 hours post application) of the same compound?
Answer: Its value is 18.33 mosquito landings/hour.

Question: What about the “WM = William's mean mosquito landings/hour” value (Anopheles darlingi; 4 hours post application) of the same compound?
Answer: Its value is 14.96 mosquito landings/hour.

Question: And the “% P = percentage protection” value (Anopheles darlingi; 5 hours post application)?
Answer: The value was 62.21%.

Question: And the “AM = arithmetic mean mosquito landings/hour” value (Anopheles darlingi; 5 hours post application)?
Answer: The value was 12.89 mosquito landings/hour.

Question: And the “WM = William's mean mosquito landings/hour” value (Anopheles darlingi; 5 hours post application)?
Answer: The value was 10.59 mosquito landings/hour.

Question: And the “% P = percentage protection” value (Anopheles darlingi; 6 hours post application)?
Answer: The value was 51.41%.

Question: What about the “AM = arithmetic mean mosquito landings/hour” value (Anopheles darlingi; 6 hours post application) of the same compound?
Answer: Its value is 17.22 mosquito landings/hour.

Question: And the “WM = William's mean mosquito landings/hour” value (Anopheles darlingi; 6 hours post application)?
Answer: The value was 13.59 mosquito landings/hour.

Question: What about the “% P = percentage protection” value (Anopheles darlingi; Mean of 3-6 hours) of the same compound?
Answer: The value was 61.40%.

Question: What about the “AM = arithmetic mean mosquito landings/hour” value (Anopheles darlingi; Mean of 3-6 hours) of the same compound?
Answer: The value was 15.00 mosquito landings/hour.

Question: What about the “WM = William's mean mosquito landings/hour” value (Anopheles darlingi; Mean of 3-6 hours) of the same compound?
Answer: Its value is 12.07^c mosquito landings/hour.
